This note sets out measurements from patent US20260234157A1, “COMPOUND AND METHOD FOR TARGETED DEGRADATION OF ANDROGEN RECEPTOR” (Gan & Lee Pharmaceuticals Co., Ltd., priority 2023, published 2026).

Substitutions are numbered along the chain they refer to.

The target of the first experiment is T1, AR protein (Homo sapiens, UniProt P10275, T878A).
T1 construct: degradation activity of the compounds disclosed in the present disclosure on AR protein in LNCaP cells; host or cells: LNCaP FGC
T1 sequence (P10275 1-920 T878A): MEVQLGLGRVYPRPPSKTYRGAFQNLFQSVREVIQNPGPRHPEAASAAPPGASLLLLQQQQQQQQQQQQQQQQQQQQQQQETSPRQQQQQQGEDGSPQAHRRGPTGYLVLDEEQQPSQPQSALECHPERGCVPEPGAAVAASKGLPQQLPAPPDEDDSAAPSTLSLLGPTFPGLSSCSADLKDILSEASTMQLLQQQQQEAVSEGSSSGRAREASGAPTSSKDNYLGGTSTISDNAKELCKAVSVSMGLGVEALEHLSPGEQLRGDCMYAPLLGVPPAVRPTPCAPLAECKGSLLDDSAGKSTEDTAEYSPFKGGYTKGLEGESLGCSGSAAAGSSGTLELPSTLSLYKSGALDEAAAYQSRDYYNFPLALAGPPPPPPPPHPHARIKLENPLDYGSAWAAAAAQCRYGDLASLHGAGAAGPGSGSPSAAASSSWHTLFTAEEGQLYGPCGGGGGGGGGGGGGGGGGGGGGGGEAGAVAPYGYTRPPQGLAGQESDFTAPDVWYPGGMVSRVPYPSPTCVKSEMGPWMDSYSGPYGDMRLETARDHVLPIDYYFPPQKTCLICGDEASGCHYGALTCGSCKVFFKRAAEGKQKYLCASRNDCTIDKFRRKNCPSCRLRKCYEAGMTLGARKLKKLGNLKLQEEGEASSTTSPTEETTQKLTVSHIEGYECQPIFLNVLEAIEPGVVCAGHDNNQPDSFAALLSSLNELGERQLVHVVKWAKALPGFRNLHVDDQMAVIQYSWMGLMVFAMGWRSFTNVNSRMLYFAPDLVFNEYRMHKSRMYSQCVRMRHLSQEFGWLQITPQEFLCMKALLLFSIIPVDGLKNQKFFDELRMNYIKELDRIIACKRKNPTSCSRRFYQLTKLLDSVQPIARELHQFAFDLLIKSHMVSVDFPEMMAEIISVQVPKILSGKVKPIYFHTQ
As to the kind of experiment: Degradation of AR protein in LNCaP cells (Western blot). The format is cell-based. The following applies: LNCaP cells, compound 10 nM, 8 hours, Western blot grayscale, GAPDH internal reference; read-out: Degradation rates of the AR protein in LNCaP cells, 10 nM (%). Put shortly: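 Percent AR degradation was derived from GAPDH-normalised Western blot band intensities (infrared detection) in LNCaP lysates.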
A general note: A western blot detects proteins with antibodies after separation by electrophoresis.
Consider `COc1cc(O[C@H]2C(C)(C)[C@H](NC(=O)c3ccc(N4CCC(C)(CN5CCC6(CCc7cc8c(cc7O6)CN(C6CCC(=O)NC6=O)C8=O)CC5)CC4)cc3)C2(C)C)ccc1C#N` (stereo partly drawn) [Compound 281], for which the inhibition at 0.01 µM came out at 20%.
Still for that read-out and setting: the figure for `COc1cc(O[C@H]2C(C)(C)[C@H](NC(=O)c3ccc(N4CCC(C)(CN5CCC6(CCc7ccc8c(c7O6)CN(C6CCC(=O)NC6=O)C8=O)CC5)CC4)cc3)C2(C)C)ccc1C#N` (stereo partly drawn) [Compound 283] is 53%; for `COc1cc(O[C@H]2C(C)(C)[C@H](NC(=O)c3ccc(N4CCC(F)(CN5CCC6(CC5)COc5cc7c(cc5O6)CN(C5CCC(=O)NC5=O)C7=O)CC4)cc3)C2(C)C)ccc1C#N` (stereo partly drawn) [Compound 284] it is 18%.

The same experiment, now with this note: LNCaP cells, compound 100 nM, 8 hours, Western blot grayscale, GAPDH internal reference; read-out: Degradation rates of the AR protein in LNCaP cells, 100 nM (%).
For the compound `COc1cc(O[C@H]2C(C)(C)[C@H](NC(=O)c3ccc(N4CCC(C)(CN5CCC6(CCc7cc8c(cc7O6)CN(C6CCC(=O)NC6=O)C8=O)CC5)CC4)cc3)C2(C)C)ccc1C#N` (stereo partly drawn) [Compound 281], the inhibition at 0.1 µM is 56%.
Still for that read-out and setting: the figure for `COc1cc(O[C@H]2C(C)(C)[C@H](NC(=O)c3ccc(N4CCC(C)(CN5CCC6(CCc7ccc8c(c7O6)CN(C6CCC(=O)NC6=O)C8=O)CC5)CC4)cc3)C2(C)C)ccc1C#N` (stereo partly drawn) [Compound 283] is 66%; for `COc1cc(O[C@H]2C(C)(C)[C@H](NC(=O)c3ccc(N4CCC(F)(CN5CCC6(CC5)COc5cc7c(cc5O6)CN(C5CCC(=O)NC5=O)C7=O)CC4)cc3)C2(C)C)ccc1C#N` (stereo partly drawn) [Compound 284] it is 51%.

Another experiment concerns the target T2, AR protein (Homo sapiens, UniProt P10275).
T2 construct: degradation activity of the compounds disclosed in the present disclosure on AR protein in VCaP cells; host or cells: VCaP
T2 sequence (P10275 1-920): T1 sequence (P10275 1-920 T878A) with A878T
Put plainly: Degradation of AR protein in VCaP cells (Western blot). Type of experiment: cell-based. As to conditions: compound at 10 nM, 8 hours, read-out: Degradation rate of the AR protein in VCaP cells, 10 nM (%). In short, it runs like this: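 Western blot readout: AR band grayscale normalised to GAPDH, used to derive degradation rate. Lysates came from VCaP cells exposed to compound for 8 h, with solvent controls run in parallel.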
`COc1cc(O[C@H]2C(C)(C)[C@H](NC(=O)c3ccc(N4CCC(C)(CN5CCC6(CCc7cc8c(cc7O6)CN(C6CCC(=O)NC6=O)C8=O)CC5)CC4)cc3)C2(C)C)ccc1C#N` (stereo partly drawn) [Compound 281]: the inhibition at 0.01 µM was -11%.
As to `COc1cc(O[C@H]2C(C)(C)[C@H](NC(=O)c3ccc(N4CCC(C)(CN5CCC6(CCc7ccc8c(c7O6)CN(C6CCC(=O)NC6=O)C8=O)CC5)CC4)cc3)C2(C)C)ccc1C#N` (stereo partly drawn) [Compound 283], the inhibition at 0.01 µM is 2%.
On to `COc1cc(O[C@H]2C(C)(C)[C@H](NC(=O)c3ccc(N4CCC(F)(CN5CCC6(CC5)COc5cc7c(cc5O6)CN(C5CCC(=O)NC5=O)C7=O)CC4)cc3)C2(C)C)ccc1C#N` (stereo partly drawn) [Compound 284], for which the inhibition at 0.01 µM stood at 9%.

The same experiment, now with this note: compound at 100 nM, 8 hours, read-out: Degradation rate of the AR protein in VCaP cells, 100 nM (%).
With `COc1cc(O[C@H]2C(C)(C)[C@H](NC(=O)c3ccc(N4CCC(C)(CN5CCC6(CCc7cc8c(cc7O6)CN(C6CCC(=O)NC6=O)C8=O)CC5)CC4)cc3)C2(C)C)ccc1C#N` (stereo partly drawn) [Compound 281], the inhibition at 0.1 µM stood at 60%.
Still for that read-out and setting: to `COc1cc(O[C@H]2C(C)(C)[C@H](NC(=O)c3ccc(N4CCC(C)(CN5CCC6(CCc7ccc8c(c7O6)CN(C6CCC(=O)NC6=O)C8=O)CC5)CC4)cc3)C2(C)C)ccc1C#N` (stereo partly drawn) [Compound 283] belongs 45%; to `COc1cc(O[C@H]2C(C)(C)[C@H](NC(=O)c3ccc(N4CCC(F)(CN5CCC6(CC5)COc5cc7c(cc5O6)CN(C5CCC(=O)NC5=O)C7=O)CC4)cc3)C2(C)C)ccc1C#N` (stereo partly drawn) [Compound 284], 73%.

For the next experiment, the system named is LNCaP FGC cells. As to the kind of experiment: Inhibition of proliferation of LNCaP cells (WST-8). The format is cell-based. The following applies: Homo sapiens, LNCaP, 96 h, LNCaP FGC cells, 96 hours, WST-8 absorbance at 450 nm; read-out: IC50 for inhibiting the proliferation of LNCaP cells. As to the method: The cells were cultured in a cell culture incubator with 5% CO2 at 37° C. overnight. […] On the sixth day, 96 well plates were taken out, and 20 μL of WST-8 (Beytime, C0040) reagent was added to each well.
On the technique in general: Tetrazolium dyes change colour on reduction, which living cells bring about.
On to `COc1cc(O[C@H]2C(C)(C)[C@H](NC(=O)c3ccc(N4CCC(C)(CN5CCC6(CCc7cc8c(cc7O6)CN(C6CCC(=O)NC6=O)C8=O)CC5)CC4)cc3)C2(C)C)ccc1C#N` (stereo partly drawn) [Compound 281], for which the IC50 stood at 2140 nM.
On the same count and under the same terms, the figure for `COc1cc(O[C@H]2C(C)(C)[C@H](NC(=O)c3ccc(N4CCC(C)(CN5CCC6(CCc7ccc8c(c7O6)CN(C6CCC(=O)NC6=O)C8=O)CC5)CC4)cc3)C2(C)C)ccc1C#N` (stereo partly drawn) [Compound 283] is 97600 nM; for `COc1cc(O[C@H]2C(C)(C)[C@H](NC(=O)c3ccc(N4CCC(F)(CN5CCC6(CC5)COc5cc7c(cc5O6)CN(C5CCC(=O)NC5=O)C7=O)CC4)cc3)C2(C)C)ccc1C#N` (stereo partly drawn) [Compound 284] it is 5840 nM.

The next experiment has as its system VCaP cells. Put plainly: Inhibition of proliferation of VCaP cells (WST-8). The following applies: Homo sapiens; VCaP cells, 168 hours, WST-8 absorbance at 450 nm; read-out: IC50 for inhibiting the proliferation of VCaP cells. The format is cell-based. In short, it runs like this: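 Proliferation was read by WST-8 on day nine. Cells were VCaP FGC, seeded at 15000 cells per well in 10% FBS DMEM and kept at 37° C with 5% CO2.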
As for `COc1cc(O[C@H]2C(C)(C)[C@H](NC(=O)c3ccc(N4CCC(C)(CN5CCC6(CCc7cc8c(cc7O6)CN(C6CCC(=O)NC6=O)C8=O)CC5)CC4)cc3)C2(C)C)ccc1C#N` (stereo partly drawn) [Compound 281], the IC50 worked out at 4 nM.
Same read-out and setting: to `COc1cc(O[C@H]2C(C)(C)[C@H](NC(=O)c3ccc(N4CCC(C)(CN5CCC6(CCc7ccc8c(c7O6)CN(C6CCC(=O)NC6=O)C8=O)CC5)CC4)cc3)C2(C)C)ccc1C#N` (stereo partly drawn) [Compound 283] belongs 13 nM; to `COc1cc(O[C@H]2C(C)(C)[C@H](NC(=O)c3ccc(N4CCC(F)(CN5CCC6(CC5)COc5cc7c(cc5O6)CN(C5CCC(=O)NC5=O)C7=O)CC4)cc3)C2(C)C)ccc1C#N` (stereo partly drawn) [Compound 284], 19 nM.
